Assay results from patent US20080167277A1, “METHODS OF TREATING SKIN DISORDERS WITH CAFFEIC ACID ANALOGS” (priority 2006, published 2008).

Tested on: psoriasis
Assay: Topical dosage form of CAPE in petroleum jelly for treating psoriasis
Type: in vivo
Details: 10.0 weight percent in petroleum jelly
Text: In some embodiments, the topical dosage forms may contain 0.5 weight percent to 20.0 weight percent of the compounds described herein. […] The weight percent of the compounds described herein within the topical dosage forms may range from 1.0 weight percent to 15.0 weight percent or 5.0 weight percent to 11.0 weight percent. Treatment regimes with the topical dosage forms may occur daily, twice daily, three times daily or four times daily for durations, for example, of three weeks or four weeks or until symptoms are no longer present.

Structure (SMILES): O=C(/C=C/c1ccc(O)c(O)c1)OCCc1ccccc1 [CAPE, caffeic acid phenethyl ester]
- effectiveness for treating psoriasis: effective
